Experiments:
AMPA receptors = test: AMPA receptor binding affinity (Honore et al. method); conditions: Table 1, AMPA
[1] = target: kainate site (non-NMDA receptor); test: Kainate site (non-NMDA receptor) binding affinity (London and Coyle method); conditions: Table 1, KA (kainate)
[2] = target: T1, glycine site of the NMDA receptor (Rattus norvegicus, UniProt P35439); test: Glycine site of the NMDA receptor binding affinity (Jones et al. method); conditions: Table 1, GLY (glycine site of NMDA receptor)
T1 construct: from tissue

Structure (SMILES) | IC50 (AMPA receptors) | IC50 KA [1] | IC50 [2]
Cc1c([N+](=O)[O-])cc2[nH]c(=O)c(=O)[nH]c2c1CN(C)C(=O)Nc1ccccc1C(F)(F)F [Compound 6, 1-Methyl-1-(6-methyl-7-nitro-2,3-dioxo-1,2,3,4-tetrahydro-quinoxalin-5-ylmethyl)-3-(2-trifluoromethyl-phenyl)-urea] | 2850 nM | 7500 nM | 10 nM
COc1ccc(NC(=O)N(C)Cc2c(C)c([N+](=O)[O-])cc3[nH]c(=O)c(=O)[nH]c23)cc1 [Compound 2, 3-(4-Methoxy-phenyl)-1-methyl-1-(6-methyl-7-nitro-2,3-dioxo-1,2,3,4-tetrahydro-quinoxalin-5-ylmethyl)-urea] | 170 nM | 1120 nM | 5 nM
CCOC(=O)c1ccc(NC(=O)N(C)Cc2c(C)c([N+](=O)[O-])cc3[nH]c(=O)c(=O)[nH]c23)cc1 [Compound 7, 4-(3-Methyl-3-(6-methyl-7-nitro-2,3-dioxo-1,2,3,4-tetrahydro-quinoxalin-5-ylmethyl)ureido)-benzoic acid ethyl ester] | 4110 nM | 18400 nM | 10 nM
COc1ccc(OC)c(NC(=O)N(C)Cc2c(C)c([N+](=O)[O-])cc3[nH]c(=O)c(=O)[nH]c23)c1 [Compound 5, 3-(2,5-Dimethoxy-phenyl)-1-methyl-1-(6-methyl-7-nitro-2,3-dioxo-1,2,3,4-tetrahydro-quinoxalin-5-ylmethyl)-urea] | 3000 nM | 9540 nM | 10 nM
Cc1c([N+](=O)[O-])cc2[nH]c(=O)c(=O)[nH]c2c1CN(C)C(=O)Nc1ccccc1 [Compound 1, 1-Methyl-1-(6-methyl-7-nitro-2,3-dioxo-1,2,3,4-tetrahydro-quinoxalin-5-ylmethyl)-3-phenyl-urea] | 130 nM | 820 nM | 8 nM
COc1ccc(NC(=S)N(C)Cc2c(C)c([N+](=O)[O-])cc3[nH]c(=O)c(=O)[nH]c23)cc1 [Compound 3, 3-(4-Methoxy-phenyl)-1-methyl-1-(6-methyl-7-nitro-2,3-dioxo-1,2,3,4-tetrahydro-quinoxalin-5-ylmethyl)-thiourea] | 230 nM | 2540 nM | 40 nM
Cc1ccc(NC(=O)N(C)Cc2c(C)c([N+](=O)[O-])cc3[nH]c(=O)c(=O)[nH]c23)c(C)c1 [Compound 4, 3-(2,4-Dimethyl-phenyl)-1-methyl-1-(6-methyl-7-nitro-2,3-dioxo-1,2,3,4-tetrahydro-quinoxalin-5-ylmethyl)-urea] | 3600 nM | 6700 nM | 20 nM

— US6172065A, “Urea and thiourea derivatives of substituted quinoxaline 2,3-diones as glutamate receptor antagonists” (Warner-Lambert Company, priority 1998, dated 2001)
